Drawing on patent US9717775B2 (priority 2006, dated 2017), this text covers IC50 and Hill slope for one substance.

One test has as its system α6/α3β4 nAChR. The test is classed as cell-based, rat.
For a further test, the target named is α9α10 nAChR (Rattus norvegicus, UniProt P43144+Q9JLB5). It is filed as cell-based.
In a further test the test system is α6/α3β2β3 nAChR. The test is classed as cell-based, rat.

Sequence of α9α10 nAChR (P43144 26-479 limits assumed): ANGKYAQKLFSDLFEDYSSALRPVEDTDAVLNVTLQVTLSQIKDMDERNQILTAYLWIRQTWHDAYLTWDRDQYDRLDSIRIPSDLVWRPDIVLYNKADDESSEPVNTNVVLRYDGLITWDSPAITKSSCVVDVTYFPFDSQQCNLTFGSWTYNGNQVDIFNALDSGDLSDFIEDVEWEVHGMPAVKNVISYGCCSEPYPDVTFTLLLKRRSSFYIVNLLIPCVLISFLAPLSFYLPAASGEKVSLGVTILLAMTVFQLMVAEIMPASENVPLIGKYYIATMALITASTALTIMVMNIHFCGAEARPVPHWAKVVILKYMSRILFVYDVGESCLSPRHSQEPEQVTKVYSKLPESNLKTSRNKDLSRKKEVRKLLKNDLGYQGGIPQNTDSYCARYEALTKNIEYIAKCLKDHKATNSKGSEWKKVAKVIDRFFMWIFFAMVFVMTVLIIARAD
Sequence of α9α10 nAChR (Q9JLB5 25-447 limits assumed): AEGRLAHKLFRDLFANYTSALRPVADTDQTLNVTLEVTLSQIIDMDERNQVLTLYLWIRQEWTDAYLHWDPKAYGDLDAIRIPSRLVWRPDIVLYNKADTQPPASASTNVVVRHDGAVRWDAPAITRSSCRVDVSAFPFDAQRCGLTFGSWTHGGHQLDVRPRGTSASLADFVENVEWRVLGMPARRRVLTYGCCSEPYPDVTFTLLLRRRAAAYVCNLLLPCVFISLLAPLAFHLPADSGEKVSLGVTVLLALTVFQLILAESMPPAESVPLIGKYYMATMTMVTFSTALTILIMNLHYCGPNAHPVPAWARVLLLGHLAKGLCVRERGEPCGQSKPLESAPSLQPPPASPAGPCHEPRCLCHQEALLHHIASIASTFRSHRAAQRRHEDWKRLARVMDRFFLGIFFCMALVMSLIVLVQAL

In general, IC50 refers to the concentration at which inhibition is half-maximal. Lower therefore signals higher potency. Usually Hill slope stands for the slope factor of the fitted curve. For α-conotoxin Vc1.1 [reference compound], the IC50 in the test with α6/α3β4 nAChR was determined as 982 nM; at α9α10 nAChR, 22.9 nM; in the test on α6/α3β2β3 nAChR, 144 nM. This substance also displayed a Hill slope on α9α10 nAChR of 0.702±0.11.
